The values that follow come from the NIST ThermoML archive (doi:10.1016/j.jct.2019.03.035).

Numbers after ± are expanded uncertainties.

As usually defined, the refractive index is the speed of light in vacuum divided by its phase velocity in the sample.

Data set [1] can be described thus: refractive index (other wavelength) (dimensionless). Conditions: 100 kPa, Liquid, Wavelength=632.8 nm, minimum deviation angle technique.
Data set [2] is described as follows: refractive index (other wavelength) (dimensionless); xn = mol fraction of the nth substance listed. Conditions: 288.62 K; 100 kPa; Liquid; Wavelength=632.8 nm; minimum deviation angle technique; x2 = 0.

`N#Cc1ccccc1` [benzonitrile]: the refractive index in data set [1] (285.47 K) worked out at 1.5293 ± 0.0003; in data set [1] (286.4 K), 1.5288 ± 0.0003; in data set [1] (287.49 K) it was 1.5283 ± 0.0003; in data set [1] (288.44 K) it was 1.5278 ± 0.0003; in data set [1] (288.62 K), 1.5277 ± 0.0003; in data set [1] (289.45 K) it was 1.5274 ± 0.0003. For the same compound, the refractive index in data set [1] (290.7 K) came out at 1.5268 ± 0.0003; in data set [1] (291.77 K), 1.5262 ± 0.0003; in data set [1] (292.66 K) it was 1.5258 ± 0.0003; in data set [1] (293.89 K), 1.5252 ± 0.0003.

`CCCCCCCCCC` [decane]: the refractive index is listed as 1.4142 ± 0.0003 in data set [1] (285.51 K); 1.4137 ± 0.0003 in data set [1] (286.56 K); 1.4133 ± 0.0003 in data set [1] (287.57 K); 1.4128 ± 0.0003 in data set [1] (288.6 K); 1.4128 ± 0.0003 in data set [1] (288.62 K); 1.4123 ± 0.0003 in data set [1] (289.75 K). For the same compound, the refractive index in data set [1] (290.67 K) turned out to be 1.4119 ± 0.0003; in data set [1] (291.68 K), 1.4114 ± 0.0003; in data set [1] (292.74 K), 1.411 ± 0.0003; in data set [1] (293.98 K) it was 1.4104 ± 0.0003.

Turning to `CCCCCCCCCC` [decane] + N#Cc1ccccc1, the refractive index in data set [2] amounted to 1.4128 ± 0.0003.
